Test system: hypertensive subjects
Assay: Adverse events (TEAEs, SAEs, AESI, study drug discontinuation, dose modification);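 note: counts of spontaneously reported adverse events in the Safety Analysis Set, subjects grouped by treatment actually received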
Type: in vivo, human
Source text: In analyses performed on the Safety Analysis Set, subjects will be analyzed according to their actual treatment received.

CC(=O)N[C@H]1CC[C@H](NC(=O)CN2CCN(c3nncc(-c4ccc(C)cc4)n3)CC2)CC1 [Compound A HBr]
Dose titration: Hyperkalemia, subjects n (%) (100mg QD Pooled (N 60)): 2 (3.3%) | Dose titration: Hyponatremia, subjects n (%) (100mg QD Pooled (N 60)): 1 (1.7%) | Dose titration: Other possibly related, subjects n (%) (100mg QD Pooled (N 60)): 0 | Dose titration: Other unrelated, subjects n (%) (100mg QD Pooled (N 60)): 0 | Study drug discontinuation: Hyperkalemia, subjects n (%) (100mg QD Pooled (N 60)): 2 (3.3%) | Study drug discontinuation: Hyponatremia, subjects n (%) (100mg QD Pooled (N 60)): 1 (1.7%) | Study drug discontinuation: Hypotension, subjects n (%) (100mg QD Pooled (N 60)): 2 (3.3%) | Study drug discontinuation: Other possibly related, subjects n (%) (100mg QD Pooled (N 60)): 1 (1.7%) | Study drug discontinuation: Other unrelated, subjects n (%) (100mg QD Pooled (N 60)): 4 (6.7%) | Subjects with TEAE resulting in dose modification (Part 1): 24 | Dose titration: Hyperkalemia, subjects n (%) (Part 1 100mg QD (N 29)): 1 (3.4%) | Dose titration: Hyponatremia, subjects n (%) (Part 1 100mg QD (N 29)): 0 | Dose titration: Other possibly related, subjects n (%) (Part 1 100mg QD (N 29)): 0 | Dose titration: Other unrelated, subjects n (%) (Part 1 100mg QD (N 29)): 0 | Study drug discontinuation: Hyperkalemia, subjects n (%) (Part 1 100mg QD (N 29)): 2 (6.9%) | Study drug discontinuation: Hyponatremia, subjects n (%) (Part 1 100mg QD (N 29)): 0 | Study drug discontinuation: Hypotension, subjects n (%) (Part 1 100mg QD (N 29)): 1 (3.4%) | Study drug discontinuation: Other possibly related, subjects n (%) (Part 1 100mg QD (N 29)): 1 (3.4%) | Study drug discontinuation: Other unrelated, subjects n (%) (Part 1 100mg QD (N 29)): 3 (6.0%) | On-treatment TEAE: Blood and lymphatic system disorders (Part 1, 12.5 mg BID (N = 22)): 0 n (%) | On-treatment TEAE: Blood and lymphatic system disorders, Mild (Part 1, 12.5 mg BID (N = 22)): 0 n (%) | On-treatment TEAE: Blood creatinine increased (Part 1, 12.5 mg BID (N = 22)): 0 n (%) | On-treatment TEAE: Blood creatinine increased, Mild (Part 1, 12.5 mg BID (N = 22)): 0 n (%) | On-treatment TEAE: Cardiac disorders (Part 1, 12.5 mg BID (N = 22)): 1 (4.5) n (%) | On-treatment TEAE: Cortisol decreased (Part 1, 12.5 mg BID (N = 22)): 2 (9.1) n (%) | On-treatment TEAE: Cortisol decreased, Mild (Part 1, 12.5 mg BID (N = 22)): 2 (9.1) n (%) | On-treatment TEAE: Dizziness (Part 1, 12.5 mg BID (N = 22)): 0 n (%) | On-treatment TEAE: Gastrointestinal disorders (Part 1, 12.5 mg BID (N = 22)): 0 n (%) | On-treatment TEAE: Gastrointestinal disorders, Mild (Part 1, 12.5 mg BID (N = 22)): 0 n (%) | On-treatment TEAE: General disorders and administration site conditions (Part 1, 12.5 mg BID (N = 22)): 2 (9.1) n (%) | On-treatment TEAE: General disorders and administration site conditions, Mild (Part 1, 12.5 mg BID (N = 22)): 1 (4.5) n (%) | On-treatment TEAE: Glomerular filtration rate decreased (Part 1, 12.5 mg BID (N = 22)): 3 (13.6) n (%) | On-treatment TEAE: Glomerular filtration rate decreased, Mild (Part 1, 12.5 mg BID (N = 22)): 3 (13.6) n (%) | On-treatment TEAE: Headache (Part 1, 12.5 mg BID (N = 22)): 0 n (%) | On-treatment TEAE: Headache, Mild (Part 1, 12.5 mg BID (N = 22)): 0 n (%) | On-treatment TEAE: Hyperkalaemia (Part 1, 12.5 mg BID (N = 22)): 5 (22.7) n (%) | On-treatment TEAE: Hyperkalaemia, Mild (Part 1, 12.5 mg BID (N = 22)): 4 (18.2) n (%) | On-treatment TEAE: Hyperkalaemia, Moderate (Part 1, 12.5 mg BID (N = 22)): 1 (4.5) n (%) | On-treatment TEAE: Hyperkalaemia, Severe (Part 1, 12.5 mg BID (N = 22)): 0 n (%) | On-treatment TEAE: Hypertension (Part 1, 12.5 mg BID (N = 22)): 0 n (%) | On-treatment TEAE: Hypertension, Moderate (Part 1, 12.5 mg BID (N = 22)): 0 n (%) | On-treatment TEAE: Infections and infestations (Part 1, 12.5 mg BID (N = 22)): 1 (4.5) n (%) | On-treatment TEAE: Infections and infestations, Mild (Part 1, 12.5 mg BID (N = 22)): 0 n (%) | On-treatment TEAE: Infections and infestations, Moderate (Part 1, 12.5 mg BID (N = 22)): 1 (4.5) n (%) | On-treatment TEAE: Investigations (Part 1, 12.5 mg BID (N = 22)): 6 (27.3) n (%) | On-treatment TEAE: Investigations, Mild (Part 1, 12.5 mg BID (N = 22)): 5 (22.7) n (%) | On-treatment TEAE: Investigations, Moderate (Part 1, 12.5 mg BID (N = 22)): 1 (4.5) n (%) | On-treatment TEAE: Metabolism and nutrition disorders (Part 1, 12.5 mg BID (N = 22)): 5 (22.7) n (%) | On-treatment TEAE: Metabolism and nutrition disorders, Mild (Part 1, 12.5 mg BID (N = 22)): 4 (18.2) n (%) | On-treatment TEAE: Metabolism and nutrition disorders, Moderate (Part 1, 12.5 mg BID (N = 22)): 1 (4.5) n (%) | On-treatment TEAE: Nervous system disorders (Part 1, 12.5 mg BID (N = 22)): 1 (4.5) n (%) | On-treatment TEAE: Nervous system disorders, Mild (Part 1, 12.5 mg BID (N = 22)): 1 (4.5) n (%) | On-treatment TEAE: Orthostatic hypotension (Part 1, 12.5 mg BID (N = 22)): 1 (4.5) n (%) | On-treatment TEAE: Orthostatic hypotension, Mild (Part 1, 12.5 mg BID (N = 22)): 1 (4.5) n (%) | On-treatment TEAE: Psychiatric disorders (Part 1, 12.5 mg BID (N = 22)): 1 (4.5) n (%) | On-treatment TEAE: Psychiatric disorders, Moderate (Part 1, 12.5 mg BID (N = 22)): 1 (4.5) n (%) | On-treatment TEAE: Urinary tract infection (Part 1, 12.5 mg BID (N = 22)): 0 n (%) | On-treatment TEAE: Urinary tract infection, Mild (Part 1, 12.5 mg BID (N = 22)): 0 n (%) | On-treatment TEAE: Vascular disorders (Part 1, 12.5 mg BID (N = 22)): 2 (9.1) n (%) | On-treatment TEAE: Vascular disorders, Mild (Part 1, 12.5 mg BID (N = 22)): 2 (9.1) n (%) | On-treatment TEAE: Vascular disorders, Moderate (Part 1, 12.5 mg BID (N = 22)): 0 n (%) | On-treatment TEAE: any, Mild (Part 1, 12.5 mg BID (N = 22)): 8 (36.4) n (%) | On-treatment TEAE: any, Moderate (Part 1, 12.5 mg BID (N = 22)): 5 (22.7) n (%) | On-treatment TEAE: any, Severe (Part 1, 12.5 mg BID (N = 22)): 0 n (%) | Subjects with any On-treatment TEAEs leading to withdrawal from study drug (Part 1, 12.5 mg BID (N = 22)): 1 (4.5) n (%) | TEAE leading to permanent discontinuation from study drug: Activated partial thromboplastin time prolonged (Part 1, 12.5 mg BID (N = 22)): 0 n (%) | TEAE leading to permanent discontinuation from study drug: Cardiac disorders (Part 1, 12.5 mg BID (N = 22)): 0 n (%) | TEAE leading to permanent discontinuation from study drug: Coronary artery disease (Part 1, 12.5 mg BID (N = 22)): 0 n (%) | TEAE leading to permanent discontinuation from study drug: Dizziness (Part 1, 12.5 mg BID (N = 22)): 0 n (%) | TEAE leading to permanent discontinuation from study drug: Hyperkalaemia (Part 1, 12.5 mg BID (N = 22)): 0 n (%) | TEAE leading to permanent discontinuation from study drug: Hypertension (Part 1, 12.5 mg BID (N = 22)): 0 n (%) | TEAE leading to permanent discontinuation from study drug: Hypotension (Part 1, 12.5 mg BID (N = 22)): 0 n (%) | TEAE leading to permanent discontinuation from study drug: Investigations (Part 1, 12.5 mg BID (N = 22)): 0 n (%) | TEAE leading to permanent discontinuation from study drug: Metabolism and nutrition disorders (Part 1, 12.5 mg BID (N = 22)): 0 n (%) | TEAE leading to permanent discontinuation from study drug: Nervous system disorders (Part 1, 12.5 mg BID (N = 22)): 0 n (%) | TEAE leading to permanent discontinuation from study drug: Orthostatic hypotension (Part 1, 12.5 mg BID (N = 22)): 1 (4.5) n (%) | TEAE leading to permanent discontinuation from study drug: Vascular disorders (Part 1, 12.5 mg BID (N = 22)): 1 (4.5) n (%) | On-treatment TEAE: Blood and lymphatic system disorders (Part 1, 12.5 mg QD (N = 23)): 0 n (%) | On-treatment TEAE: Blood and lymphatic system disorders, Mild (Part 1, 12.5 mg QD (N = 23)): 0 n (%) | On-treatment TEAE: Blood creatinine increased (Part 1, 12.5 mg QD (N = 23)): 0 n (%) | On-treatment TEAE: Blood creatinine increased, Mild (Part 1, 12.5 mg QD (N = 23)): 0 n (%) | On-treatment TEAE: Cardiac disorders (Part 1, 12.5 mg QD (N = 23)): 2 (8.7) n (%) | On-treatment TEAE: Cortisol decreased (Part 1, 12.5 mg QD (N = 23)): 0 n (%) | On-treatment TEAE: Cortisol decreased, Mild (Part 1, 12.5 mg QD (N = 23)): 0 n (%) | On-treatment TEAE: Dizziness (Part 1, 12.5 mg QD (N = 23)): 1 (4.3) n (%) | On-treatment TEAE: Gastrointestinal disorders (Part 1, 12.5 mg QD (N = 23)): 2 (8.7) n (%) | On-treatment TEAE: Gastrointestinal disorders, Mild (Part 1, 12.5 mg QD (N = 23)): 1 (4.3) n (%) | On-treatment TEAE: General disorders and administration site conditions (Part 1, 12.5 mg QD (N = 23)): 1 (4.3) n (%) | On-treatment TEAE: General disorders and administration site conditions, Mild (Part 1, 12.5 mg QD (N = 23)): 0 n (%) | On-treatment TEAE: Glomerular filtration rate decreased (Part 1, 12.5 mg QD (N = 23)): 1 (4.3) n (%) | On-treatment TEAE: Glomerular filtration rate decreased, Mild (Part 1, 12.5 mg QD (N = 23)): 1 (4.3) n (%) | On-treatment TEAE: Headache (Part 1, 12.5 mg QD (N = 23)): 0 n (%) | On-treatment TEAE: Headache, Mild (Part 1, 12.5 mg QD (N = 23)): 0 n (%) | On-treatment TEAE: Hyperkalaemia (Part 1, 12.5 mg QD (N = 23)): 6 (26.1) n (%) | On-treatment TEAE: Hyperkalaemia, Mild (Part 1, 12.5 mg QD (N = 23)): 4 (17.4) n (%) | On-treatment TEAE: Hyperkalaemia, Moderate (Part 1, 12.5 mg QD (N = 23)): 1 (4.3) n (%) | On-treatment TEAE: Hyperkalaemia, Severe (Part 1, 12.5 mg QD (N = 23)): 1 (4.3) n (%) | On-treatment TEAE: Hypertension (Part 1, 12.5 mg QD (N = 23)): 2 (8.7) n (%) | On-treatment TEAE: Hypertension, Moderate (Part 1, 12.5 mg QD (N = 23)): 1 (4.3) n (%) | On-treatment TEAE: Infections and infestations (Part 1, 12.5 mg QD (N = 23)): 3 (13.0) n (%) | On-treatment TEAE: Infections and infestations, Mild (Part 1, 12.5 mg QD (N = 23)): 3 (13.0) n (%)

— patent US20260053811A1, “METHODS OF TREATING HYPERTENSION IN OBESE SUBJECTS” (Mineralys Therapeutics, Inc., priority 2022, published 2026)
